Active and inactive are the calls of the source. The rule behind the calls is not given here.
Legend:
[1] = tested on: HCCLM9; test: Antiproliferative activity against human HCCLM9 cells after 72 hrs by MTT assay; format: functional, cell-based; conditions: HCCLM9, 72 h
[2] = tested on: Huh-7; test: Antiproliferative activity against human Huh-7 cells after 72 hrs by MTT assay; format: functional, cell-based; conditions: Huh-7, 72 h
[3] = tested on: HT-29; test: Antiproliferative activity against human HT-29 cells after 72 hrs by MTT assay; format: functional, cell-based; conditions: HT-29, 72 h
[4] = tested on: HCT-116; test: Antiproliferative activity against human HCT-116 cells after 72 hrs by MTT assay; format: functional, cell-based; conditions: HCT-116, 72 h
[5] = tested on: RKO; test: Antiproliferative activity against human RKO cells after 72 hrs by MTT assay; format: functional, cell-based
[6] = tested on: SW480; test: Antiproliferative activity against human SW480 cells after 72 hrs by MTT assay; format: functional, cell-based; conditions: SW480, 72 h
[7] = tested on: SK-HEP1; test: Antiproliferative activity against human SK-HEP1 cells after 72 hrs by MTT assay; format: functional, cell-based; conditions: SK-HEP1, 72 h
[8] = tested on: HepG2; test: Antiproliferative activity against human HepG2 cells after 72 hrs by MTT assay; format: functional, cell-based; conditions: HepG2, 72 h
[9] = tested on: MCF7; test: Antiproliferative activity against human MCF7 cells after 72 hrs by MTT assay; format: functional, cell-based; conditions: MCF7, 72 h
[10] = tested on: MDA-MB-231; test: Antiproliferative activity against human MDA-MB-231 cells after 72 hrs by MTT assay; format: functional, cell-based; conditions: MDA-MB-231, 72 h
[11] = tested on: HGC-27; test: Antiproliferative activity against human HGC-27 cells after 72 hrs by MTT assay; format: functional, cell-based; conditions: HGC-27, 72 h
[12] = tested on: SGC-7901; test: Antiproliferative activity against human SGC-7901 cells after 72 hrs by MTT assay; format: functional, cell-based; conditions: SGC-7901, 72 h
[13] = tested on: BGC-823; test: Antiproliferative activity against human BGC-823 cells after 72 hrs by MTT assay; format: functional, cell-based; conditions: BGC-823, 72 h
[14] = tested on: A549; test: Antiproliferative activity against human A549 cells after 72 hrs by MTT assay; format: functional, cell-based; conditions: A549, 72 h
[15] = tested on: U-251; test: Antiproliferative activity against human U-251 cells after 72 hrs by MTT assay; format: functional, cell-based; conditions: U-251, 72 h
[16] = tested on: L02; test: Antiproliferative activity against human L02 cells after 72 hrs by MTT assay; format: functional, cell-based; conditions: L02, 72 h
[17] = tested on: HL-60; test: Antiproliferative activity against human HL-60 cells after 72 hrs by MTT assay; format: functional, cell-based; conditions: HL-60, 72 h
[18] = molecular target: DNA topoisomerase 1 (Homo sapiens) (UniProt P11387); test: Inhibition of DNA topoisomerase 1 (unknown origin) at 25 to 50 uM measured by agar gel electrophoresis relative to control; conditions: dose 25-50 µM
DNA topoisomerase 1 (Homo sapiens), sequence (P11387 whole entry): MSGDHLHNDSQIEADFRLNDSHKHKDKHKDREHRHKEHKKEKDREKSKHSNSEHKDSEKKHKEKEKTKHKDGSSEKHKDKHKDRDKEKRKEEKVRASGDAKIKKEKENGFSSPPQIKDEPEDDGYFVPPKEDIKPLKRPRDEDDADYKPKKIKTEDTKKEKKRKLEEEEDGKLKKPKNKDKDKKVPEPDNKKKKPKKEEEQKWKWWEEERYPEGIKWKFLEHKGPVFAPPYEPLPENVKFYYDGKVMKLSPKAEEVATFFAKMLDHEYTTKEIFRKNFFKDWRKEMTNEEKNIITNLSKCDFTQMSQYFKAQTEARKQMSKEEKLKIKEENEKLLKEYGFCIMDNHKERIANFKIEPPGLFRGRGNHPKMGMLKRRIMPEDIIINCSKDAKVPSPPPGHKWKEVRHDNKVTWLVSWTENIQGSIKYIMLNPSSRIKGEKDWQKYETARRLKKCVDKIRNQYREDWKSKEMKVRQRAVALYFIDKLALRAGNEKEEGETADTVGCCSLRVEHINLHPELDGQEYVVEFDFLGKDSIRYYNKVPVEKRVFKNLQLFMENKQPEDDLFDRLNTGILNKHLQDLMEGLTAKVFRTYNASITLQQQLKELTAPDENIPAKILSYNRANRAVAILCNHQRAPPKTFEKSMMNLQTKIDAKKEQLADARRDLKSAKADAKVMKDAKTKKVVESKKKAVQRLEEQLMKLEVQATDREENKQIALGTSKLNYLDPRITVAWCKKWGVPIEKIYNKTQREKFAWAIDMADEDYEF

Row | Structure (SMILES) | IC50 [1] | IC50 [2] | IC50 [3] | IC50 [4] | IC50 [6] | IC50 [7] | IC50 [8] | IC50 [9] | IC50 [10] | IC50 [12] | IC50 [13] | IC50 [14] | IC50 [15] | IC50 [17] | inhibition [18] | IC50 [5] | IC50 [11] | IC50 [16]
1 | OCc1cc2c(cc1-c1cc3ccc4c(c3cn1)OCO4)OCO2 | 32.7 µM | 42.3 µM | 46.7 µM | 46.7 µM | 36.9 µM | – | – | – | – | – | – | – | – | – | – | 87.4 µM | – | –
2 | CN(C)CCCCc1cc2c(cc1-c1cc3ccc4c(c3cn1)OCO4)OCO2 | 38.5 µM | 37.8 µM | 41.6 µM | 97 µM | 63.2 µM | 35.6 µM | 55.4 µM | 53.6 µM | 26.6 µM | 39 µM | 83.5 µM | 81.9 µM | 15 µM | – | – | 93.1 µM | 38.9 µM | –
3 | CN(C)Cc1c(-c2cc3c4c(ccc3cn2)OCO4)ccc2c1OCO2 | 12.5 µM | 25.5 µM | 46.7 µM | – | 74.7 µM | – | 46.7 µM | – | – | – | – | – | – | – | – | 47 µM | – | > 150 µM
4 | CNCCCc1cc2c(cc1-c1cc3ccc4c(c3cn1)OCO4)OCO2 | 20.4 µM | 19 µM | 41.1 µM | 80.9 µM | 29.4 µM | 22.2 µM | 35.7 µM | 42.8 µM | 39.5 µM | 41.6 µM | 44.9 µM | 52.1 µM | 27.7 µM | > 150 µM | – | 106 µM | 73.2 µM | 90.4 µM
5 | CN(C=O)CCc1cc2c(cc1-c1cc3ccc4c(c3cn1)OCO4)OCO2 | > 150 µM | 63.9 µM | > 150 µM | 86 µM | > 150 µM | 145 µM | 74 µM | 130 µM | 60.9 µM | > 150 µM | 79.4 µM | 96 µM | 53.4 µM | > 150 µM | – | > 150 µM | 69 µM | > 150 µM

More lines, main results first:

Row | IC50 [1] | IC50 [2] | IC50 [3] | IC50 [4] | IC50 [6] | IC50 [7] | IC50 [8] | IC50 [9] | IC50 [10] | IC50 [12] | IC50 [13] | IC50 [14] | IC50 [15] | IC50 [17] | inhibition [18] | Structure (SMILES) | IC50 [5] | IC50 [11] | IC50 [16]
6 | 8.83 µM | 11.2 µM | 36 µM | 67.2 µM | 8.54 µM | 17.2 µM | 20.8 µM | – | 12.8 µM | 48.2 µM | – | 17.4 µM | 24.6 µM | 115 µM | Active | CN(C)Cc1cc2c(cc1-c1cc3ccc4c(c3cn1)OCO4)OCO2 | 28.7 µM | 19.1 µM | > 150 µM
7 | 10.4 µM | 13.7 µM | 27.5 µM | 57.6 µM | 15.2 µM | 16 µM | 23.2 µM | 54.6 µM | 19.6 µM | 20 µM | 26.7 µM | 18.7 µM | 10.8 µM | – | – | CNCCCCc1cc2c(cc1-c1cc3ccc4c(c3cn1)OCO4)OCO2 | 81.7 µM | 55.3 µM | –
8 | 21 µM | 17.6 µM | > 150 µM | > 150 µM | 36.3 µM | 32.4 µM | 72.5 µM | 61.7 µM | 30.2 µM | 45.1 µM | 33.6 µM | 65.2 µM | 28.5 µM | 130 µM | – | CN(C)CCc1cc2c(cc1-c1cc3ccc4c(c3cn1)OCO4)OCO2 | > 150 µM | 78.5 µM | –

Source: ChEMBL document CHEMBL5154652, “Design, synthesis and anti-hepatocellular carcinoma activity of 3-arylisoquinoline alkaloids” (Eur J Med Chem, 2022)
